Assay results reported in US20070249670A1, “Glycogen Phosphorylase Inhibitor Compounds and Pharmaceutical Compositions Thereof” (SMITHKLINE BEECHAM CORPORATION, priority 2004, published 2007).
Counter-ions that a name gives are not always drawn.

Molecular target: T1, human liver glycogen phosphorylase a (HLGPa) (Homo sapiens, UniProt P06737)
T1 construct: creating a full-length cDNA fused at the 5′ end to codons for methionine-glycine-alanine-histidine; 6xHis tag (leader Met-Gly-Ala-His6-Gly-Gly) (N); made in house; host or cells: E. coli (bacterial expression plasmid pTXK1007LTev)
T1 sequence (P06737 2-847 limits assumed): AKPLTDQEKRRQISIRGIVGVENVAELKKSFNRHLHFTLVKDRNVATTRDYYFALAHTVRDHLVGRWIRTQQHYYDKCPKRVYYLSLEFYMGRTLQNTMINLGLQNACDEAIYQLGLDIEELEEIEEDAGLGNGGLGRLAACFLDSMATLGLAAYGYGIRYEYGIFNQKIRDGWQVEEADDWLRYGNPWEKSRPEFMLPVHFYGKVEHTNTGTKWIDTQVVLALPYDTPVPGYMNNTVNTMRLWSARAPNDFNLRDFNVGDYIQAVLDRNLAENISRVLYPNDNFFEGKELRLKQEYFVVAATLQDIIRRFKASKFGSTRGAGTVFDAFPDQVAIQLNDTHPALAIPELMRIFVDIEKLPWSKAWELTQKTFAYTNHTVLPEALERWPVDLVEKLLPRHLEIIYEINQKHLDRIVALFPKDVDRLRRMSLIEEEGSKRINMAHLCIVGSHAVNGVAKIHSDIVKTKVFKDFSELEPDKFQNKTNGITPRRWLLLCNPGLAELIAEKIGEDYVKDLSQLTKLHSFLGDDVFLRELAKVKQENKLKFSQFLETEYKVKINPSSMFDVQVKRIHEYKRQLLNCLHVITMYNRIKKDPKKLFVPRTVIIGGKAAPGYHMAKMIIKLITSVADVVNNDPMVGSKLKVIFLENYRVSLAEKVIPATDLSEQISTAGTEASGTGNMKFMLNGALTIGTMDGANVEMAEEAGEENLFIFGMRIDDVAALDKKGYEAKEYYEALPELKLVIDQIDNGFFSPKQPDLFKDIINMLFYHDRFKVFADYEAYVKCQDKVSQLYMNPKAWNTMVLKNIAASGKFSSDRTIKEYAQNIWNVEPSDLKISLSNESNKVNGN
Experiment: Human liver glycogen phosphorylase a enzymatic activity assay (coupled, fluorescent resorufin readout, with and without 10 mM glucose)
Assay type: biochemical
Details: human liver glycogen phosphorylase a enzymatic activity assay

| IC50 | SMILES |
| --- | --- |
| 32200 nM | Cc1cccc(C)c1NC(=O)Nc1sc2c(c1C(=O)N[C@H](C(=O)O)C(C)C)CCCC2 [Example 3, N-{[2-({[(2,6-dimethylphenyl)amino]carbonyl}amino)-4,5,6,7-tetrahydro-1-benzothien-3-yl]carbonyl}-L-valine] |
| 730 nM | Cc1cccc(C)c1NC(=O)Nc1sc2ccccc2c1C(=O)N[C@H](C(=O)O)C1CCCCC1 [Example 4, (2S)-cyclohexyl({[2-({[(2,6-dimethylphenyl)amino]carbonyl}amino)-1-benzothien-3-yl]carbonyl}amino)acetic acid] |
| 20900 nM | Cc1cccc(Cl)c1NC(=O)Nc1cc2ccccc2cc1C(=O)NC(C(=O)O)C1CCCNC1 (stereo not drawn) [Example 5, {[3-({[(2-chloro-6-methylphenyl)amino]carbonyl}amino)-2-naphthoyl]amino}(piperidin-3-yl)acetic acid trifluoroacetate] |
| 35100 nM | Cc1cc(CNC(=O)c2cc3ccccc3cc2NC(=O)Nc2c(C)cccc2Cl)on1 [Example 6, 3-({[(2-chloro-6-methylphenyl)amino]carbonyl}amino)-N-[(3-methylisoxazol-5-yl)methyl]-2-naphthamide] |
| 17000 nM | Cc1ccccc1CC(=O)Nc1cc2ccccc2cc1C(=O)N[C@H](C(=O)O)C1CCCCC1 [Example 7, (2S)-cyclohexyl{[(3-{[(2-methylphenyl)acetyl]amino}-2-naphthalenyl)carbonyl]amino}ethanoic acid] |
| 2780 nM | O=C(O)C[C@H](NC(=O)c1cc2ccccc2cc1NC(=O)Nc1ccccc1Cl)C(=O)O [Example 9, N-[3-({[(2-chlorophenyl)amino]carbonyl}amino)-2-naphthoyl]-L-aspartic acid] |
| 6500 nM | Cc1ccccc1NC(=O)Nc1cc2ccccc2cc1C(=O)NCC(=O)O [Example 10, N-[3-({[(2-methylphenyl)amino]carbonyl}amino)-2-naphthoyl]glycine] |
| 90 nM | Cc1cccc(C)c1NC(=O)Nc1cc2ccccc2cc1C(=O)NCC(=O)O [Example 11, N-[3-({[(2,6-dimethylphenyl)amino]carbonyl}amino)-2-naphthoyl]glycine] |
| 2520 nM | O=C(O)CNC(=O)c1cc2ccccc2cc1NC(=O)Nc1ccccc1Cl [Example 12, N-[3-({[(2-chlorophenyl)amino]carbonyl}amino)-2-naphthoyl]glycine] |
| 15500 nM | Cc1ccccc1NC(=O)Nc1cc2ccccc2cc1C(=O)N[C@@H](C)C(=O)O [Example 13, N-[3-({[(2-methylphenyl)amino]carbonyl}amino)-2-naphthoyl]-L-alanine] |
| 6410 nM | Cc1ccccc1NC(=O)Nc1cc2ccccc2cc1C(=O)N[C@H](C(=O)O)[C@@H](C)O [Example 14, N-[3-({[(2-methylphenyl)amino]carbonyl}amino)-2-naphthoyl]-L-threonine] |
| 11000 nM | CC[C@H](C)[C@H](NC(=O)c1cc2ccccc2cc1NC(=O)Nc1ccccc1C)C(=O)O [Example 15, N-[3-({[(2-methylphenyl)amino]carbonyl}amino)-2-naphthoyl]-L-isoleucine] |
| 5100 nM | Cc1ccccc1NC(=O)Nc1cc2ccccc2cc1C(=O)N[C@@H](CC(C)C)C(=O)O [Example 16, N-[3-({[(2-methylphenyl)amino]carbonyl}amino)-2-naphthoyl]-L-leucine] |
| 4720 nM | Cc1ccccc1NC(=O)Nc1cc2ccccc2cc1C(=O)N[C@@H](CC(N)=O)C(=O)O [Example 17, N-[3-({[(2-methylphenyl)amino]carbonyl}amino)-2-naphthoyl]-L-asparagine] |
| 1480 nM | Cc1cccc(C)c1NC(=O)Nc1cc2ccccc2cc1C(=O)N[C@@H](C)C(=O)O [Example 18, N-[3-({[(2,6-dimethylphenyl)amino]carbonyl}amino)-2-naphthoyl]-L-alanine] |
| 2000 nM | Cc1cccc(C)c1NC(=O)Nc1cc2ccccc2cc1C(=O)N[C@@H](CO)C(=O)O [Example 19, N-[3-({[(2,6-dimethylphenyl)amino]carbonyl}amino)-2-naphthoyl]-L-serine] |
| 2240 nM | Cc1cccc(C)c1NC(=O)Nc1cc2ccccc2cc1C(=O)N1CCC[C@H]1C(=O)O [Example 20, 1-[3-({[(2,6-dimethylphenyl)amino]carbonyl}amino)-2-naphthoyl]-L-proline] |
| 1960 nM | Cc1cccc(C)c1NC(=O)Nc1cc2ccccc2cc1C(=O)N[C@H](C(=O)O)C(C)C [Example 21, N-[3-({[(2,6-dimethylphenyl)amino]carbonyl}amino)-2-naphthoyl]-L-valine] |
| 1080 nM | Cc1cccc(C)c1NC(=O)Nc1cc2ccccc2cc1C(=O)N[C@H](C(=O)O)[C@@H](C)O [Example 22, N-[3-({[(2,6-dimethylphenyl)amino]carbonyl}amino)-2-naphthoyl]-L-threonine] |
| 890 nM | CC[C@H](C)[C@H](NC(=O)c1cc2ccccc2cc1NC(=O)Nc1c(C)cccc1C)C(=O)O [Example 23, N-[3-({[(2,6-dimethylphenyl)amino]carbonyl}amino)-2-naphthoyl]-L-isoleucine] |
| 1190 nM | Cc1cccc(C)c1NC(=O)Nc1cc2ccccc2cc1C(=O)N[C@@H](CC(C)C)C(=O)O [Example 24, N-[3-({[(2,6-dimethylphenyl)amino]carbonyl}amino)-2-naphthoyl]-L-leucine] |
| 670 nM | Cc1cccc(C)c1NC(=O)Nc1cc2ccccc2cc1C(=O)N[C@@H](CC(N)=O)C(=O)O [Example 25, N-[3-({[(2,6-dimethylphenyl)amino]carbonyl}amino)-2-naphthoyl]-L-asparagine] |
| 3010 nM | Cc1cccc(C)c1NC(=O)Nc1cc2ccccc2cc1C(=O)N[C@@H](CCC(N)=O)C(=O)O [Example 26, N-[3-({[(2,6-dimethylphenyl)amino]carbonyl}amino)-2-naphthoyl]-L-glutamine] |

Same assay, conditions: human liver glycogen phosphorylase a; table does not say whether with or without 10 mM glucose

| IC50 | SMILES |
| --- | --- |
| 810 nM | Cc1cc(C)c(NC(=O)Nc2cc3ccccc3cc2C(=O)NC(C(=O)O)C2CCC(NC3CCC3)CC2)c(C)c1 (mixture of isomers) [Example 347, (cis and trans)-[4-(cyclobutylamino)cyclohexyl]({[3-({[(2,4,6-trimethylphenyl)amino]carbonyl}amino)-2-naphthalenyl]carbonyl}amino)acetic acid] |
| 1860 nM | Cc1cc(C)c(NC(=O)Nc2cc3ccccc3cc2C(=O)NC(C(=O)O)C2CCC(N3CCOCC3)CC2)c(C)c1 (mixture of isomers) [Example 348, (cis and trans)-[4-(4-morpholinyl)cyclohexyl]({[3-({[(2,4,6-trimethylphenyl)amino]carbonyl}amino)-2-naphthalenyl]carbonyl}amino)acetic acid] |
| 6890 nM | COC(=O)C(NC(=O)c1cc2ccccc2cc1NC(=O)Nc1c(C)cc(C)cc1C)C1CCC(NC(=O)OC(C)(C)C)CC1 (mixture of isomers) [Example 349, (cis and trans)-methyl[4-({[(1,1-dimethylethyl)oxy]carbonyl}amino)cyclohexyl] ({[3-({[(2,4,6-trimethylphenyl)amino]carbonyl}amino)-2-naphthalenyl]carbonyl}amino)acetate] |
| 44 nM | Cc1cc(C)c(NC(=O)Nc2cc3ccccc3cc2C(=O)NC(C(=O)O)C2CCC(NC(=O)OC(C)(C)C)CC2)c(C)c1 (mixture of isomers) [Example 350, (cis and trans)-[4-({[(1,1-dimethylethyl)oxy]carbonyl}amino)cyclohexyl]({[3-({[(2,4,6-trimethylphenyl)amino]carbonyl}amino)-2-naphthalenyl]carbonyl}amino)acetic acid] |
| 2370 nM | Cc1cc(C)c(NC(=O)Nc2cc3ccccc3cc2C(=O)NC(C(=O)O)C2CCC(N)CC2)c(C)c1 (mixture of isomers) [Example 351, (cis and trans)-(4-aminocyclohexyl)({[3-({[(2,4,6-trimethylphenyl)amino]carbonyl}amino)-2-naphthalenyl]carbonyl}amino)acetic acid trifluoroacetate] |
| 100 nM | CNC(=O)NC1CCC(C(NC(=O)c2cc3ccccc3cc2NC(=O)Nc2c(C)cc(C)cc2C)C(=O)O)CC1 (mixture of isomers) [Example 352, (cis and trans)-(4-{[(methylamino)carbonyl]amino}cyclohexyl)({[3-({[(2,4,6-trimethylphenyl)amino]carbonyl}amino)-2-naphthalenyl]carbonyl}amino)acetic acid] |
| 4280 nM | Cc1cc(C)c(NC(=O)Nc2cc(Cl)cnc2C(=O)N[C@H](C(=O)O)C(C)OC(C)(C)C)c(C)c1 (stereo in doubt) [Example 318, N-{[5-chloro-3-({[(2,4,6-trimethylphenyl)amino]carbonyl}amino)-2-pyridinyl]carbonyl}-O-(1,1-dimethylethyl)-L-threonine] |
